According to the NIST ThermoML archive (doi:10.1016/j.jct.2013.02.014):
± gives the expanded uncertainty stated by the source.

Details: Liquid, Falling or rolling sphere viscometry

CCCCn1cc[n+](C)c1C.O=S(=O)([N-]S(=O)(=O)C(F)(F)F)C(F)(F)F
viscosity [mPa·s]
Details | 10000 kPa | 15000 kPa | 25000 kPa | 50000 kPa | 75000 kPa | 100000 kPa | 125000 kPa | 150000 kPa
313.15 K | 55.9 ± 5.7 | 59.5 ± 6.1 | 67.3 ± 6.9 | 90.7 ± 9.5 | 120.9 ± 13 | 159.8 ± 17 | 210.1 ± 24 | 275 ± 32
343.15 K | 19.5 ± 2.2 | 20.5 ± 2.3 | 22.7 ± 2.5 | 28.8 ± 3.3 | 36.3 ± 4.2 | 45.5 ± 5.4 | 56.9 ± 6.8 | 70.9 ± 8.7
363.15 K | 12.4 ± 1.3 | 13 ± 1.4 | 14.3 ± 1.5 | 17.9 ± 1.9 | 22.1 ± 2.3 | 26.9 ± 2.9 | 32.4 ± 3.5 | 38.7 ± 4.2
